Source: patent publication US20140073631A1 (priority 2012, published 2014)
Values after ≈ are worked out from the molar mass of the structure shown. Read-outs that look alike come from different tables or passages of the source.

Assays:
[1] = tested on: Mtb H37Rv (SRI 1345), nonreplicating persistence; format: cell-based, Mycobacterium tuberculosis
Burkholderia mallei = experiment: microbe, parasite or virus in culture; format: cell-based
Bacillus anthracis = experiment: microbe, parasite or virus in culture; format: cell-based
[2] = tested on: Mtb H37Rv (SRI 1345) in murine J774 cells; format: cell-based, Mycobacterium tuberculosis
Mtb H37Rv (SRI 1345) [3] = experiment: microbe, parasite or virus in culture; format: cell-based, Mycobacterium tuberculosis
[4] = tested on: HIV-1 ROJO (low passage clinical strain); experiment: PBMC assay, virus production by reverse transcriptase activity; format: cell-based; details: PBMCs
Francisella tularensis = experiment: microbe, parasite or virus in culture; format: cell-based
HIV-1 = experiment: CEM-SS microtiter antiviral XTT cytoprotection assay; format: cell-based
several bacteria = format: cell-based
Yersinia pestis = experiment: microbe, parasite or virus in culture; format: cell-based
[5] = tested on: Burkholderia pseudomallei; experiment: microbe, parasite or virus in culture; format: cell-based
Mtb H37Rv (SRI 1345) [6] = experiment: microbe, parasite or virus in culture; format: cell-based, Mycobacterium tuberculosis; details: for MIC: Mycobacterium tuberculosis, H37RV, 168 h, read-out: MIC H37Rv
[7] = tested on: uninfected J774 macrophages; details: mouse
[8] = tested on: fresh human peripheral blood mononuclear cells
H37Rv Colorado strain [9] = experiment: TB MIC Testing (Table 9); format: cell-based; details: Mycobacterium tuberculosis, read-out: MIC Value, Standard Test Strain H27Rv
H37Rv Colorado strain [10] = experiment: MBC Determination with H37Rv Colorado strain (Table 9); format: cell-based; details: Mycobacterium tuberculosis; Performed with H37Rv
TB = experiment: DMID TB MIC Results (Table 10); format: cell-based; details: Mycobacterium tuberculosis; solvent DMSO
Y. pestis C092 = format: in vivo, BALB/c mice; details: 21 days
F. tularensis SCHU S4 = tested on: F. tularensis SCHU S4; parameters: species or system BALB/c mice; details: mouse, in vivo

For N=C(NCCCCCCNC(=N)NC(=N)N1CCN(c2cc3c(cc2F)c(=O)c(C(=O)O)cn3C2CC2)CC1)NC(=N)N1CCN(c2cc3c(cc2F)c(=O)c(C(=O)O)cn3C2CC2)CC1 [BVS-10A], the LORA [1] was >6.25 µg/mL, the “MIC Range” value (Burkholderia mallei) was 0.25 to 8 µg/mL and the MIC50 (Burkholderia mallei; Burkholderia mallei) was 1 µg/mL (≈ 1.1 µM). For the same compound, the MIC90 (Burkholderia mallei; Burkholderia mallei) was ≥ 4 µg/mL, the “MIC Range” value (Bacillus anthracis) was 0.25 to 2 µg/mL and the MIC50 (Bacillus anthracis; Bacillus anthracis) was 0.5 µg/mL (≈ 0.548 µM). The “Microphage log reduction (low conc.)” value [2] was 1.14, the “Microphage log reduction (mid conc.)” value [2] was 0.80 and the “Colony Count” value (Mtb H37Rv (SRI 1345) [3]) was “TNTC”. The “concentrations at which active” value [4] was “greater than 3.2 μg/mL”, the “MIC Range” value (Francisella tularensis) was <0.03125 to 0.25 µg/mL and the MIC50 (Francisella tularensis; Francisella tularensis) was 0.0625 µg/mL (≈ 0.0685 µM). The “% RED. IN VIRAL CPC” value (HIV-1; 0.00032 nG/mL) was 3%, the “% RED. IN VIRAL CPC” value (HIV-1; 0.001 nG/mL) was 4% and the “% RED. IN VIRAL CPC” value (HIV-1; 0.0032 nG/mL) was 1%. The “% RED. IN VIRAL CPC” value (HIV-1; 0.01 nG/mL) was 4%, the “% RED. IN VIRAL CPC” value (HIV-1; 0.032 nG/mL) was 7% and the “% RED. IN VIRAL CPC” value (HIV-1; 0.1 nG/mL) was 2%. For the same compound, the “% RED. IN VIRAL CPC” value (HIV-1; 0.32 nG/mL) was 4%, the “% RED. IN VIRAL CPC” value (HIV-1; 1 nG/mL) was 9% and the “% RED. IN VIRAL CPC” value (HIV-1; 3.2 nG/mL) was 2%. For the same compound, the “% RED. IN VIRAL CPC” value (HIV-1; 10 nG/mL) was 11%, the “% RED. IN VIRAL CPC” value (HIV-1; 32 nG/mL) was 100% and the “% RED. IN VIRAL CPC” value (HIV-1; 100 nG/mL) was 100%. For the same compound, the “minimum inhibitory concentrations (MIC), range over strains” value (several bacteria) was <0.128 to 12.8 µg/mL, the “% CELL VIABILITY” value (CEM-SS cells; 0.00032 nG/mL) was 100% and the “% CELL VIABILITY” value (CEM-SS cells; 0.001 nG/mL) was 100%. For the same compound, the “% CELL VIABILITY” value (CEM-SS cells; 0.0032 nG/mL) was 100%, the “% CELL VIABILITY” value (CEM-SS cells; 0.01 nG/mL) was 100% and the “% CELL VIABILITY” value (CEM-SS cells; 0.032 nG/mL) was 100%. For the same compound, the “% CELL VIABILITY” value (CEM-SS cells; 0.1 nG/mL) was 100%, the “% CELL VIABILITY” value (CEM-SS cells; 0.32 nG/mL) was 100% and the “% CELL VIABILITY” value (CEM-SS cells; 1 nG/mL) was 100%. For the same compound, the “% CELL VIABILITY” value (CEM-SS cells; 3.2 nG/mL) was 100%, the “% CELL VIABILITY” value (CEM-SS cells; 10 nG/mL) was 100% and the “% CELL VIABILITY” value (CEM-SS cells; 32 nG/mL) was 100%. The “% CELL VIABILITY” value (CEM-SS cells; 100 nG/mL) was 100%, the “TC 25%” value (CEM-SS cells; human) was >100.00 UG/mL and the “TC 50%” value (CEM-SS cells; human) was >100.00 UG/mL. The “TC 95%” value (CEM-SS cells; human) was >100.00 UG/mL, the “MIC Range” value (Yersinia pestis) was 0.125 to 0.5 µg/mL and the MIC50 (Yersinia pestis; Yersinia pestis) was 0.25 µg/mL (≈ 0.274 µM). The “MIC Range” value [5] was 4 to 64 µg/mL, the “isolates with MICs<16 μg/ml” value [5] was 30% and the MIC50 ([5]; Burkholderia pseudomallei) was 32 µg/mL (≈ 35 µM). The MIC90 ([5]; Burkholderia pseudomallei) was 64 µg/mL (≈ 70.1 µM), the “% inhibition at the MIC concentration” value (Mtb H37Rv (SRI 1345) [6]) was 66% and the MIC (Mtb H37Rv (SRI 1345) [6]) was 6.25 µg/mL (≈ 6.85 µM). The “MTT % viability (high conc.)” value [7] was 73%, the “MTT % viability (low conc.)” value [7] was >100% and the “MTT % viability (mid conc.)” value [7] was 63%. For the same compound, the “TOXICITY VALUES (XTT) % CC” value ([8]; 0.01 μg/ml) was 103.2%, the “TOXICITY VALUES (XTT) % CC” value ([8]; 0.032 μg/ml) was 103.6% and the “TOXICITY VALUES (XTT) % CC” value ([8]; 0.1 μg/ml) was 97.1%. For the same compound, the “TOXICITY VALUES (XTT) % CC” value ([8]; 0.32 μg/ml) was 100.9%, the “TOXICITY VALUES (XTT) % CC” value ([8]; 1 μg/ml) was 96.2% and the “TOXICITY VALUES (XTT) % CC” value ([8]; 3.2 μg/ml) was 103.5%. The “TOXICITY VALUES (XTT) % CC” value ([8]; 10 μg/ml) was 108.3%, the “TOXICITY VALUES (XTT) % CC” value ([8]; 32 μg/ml) was 97.3% and the “toxicity in PBMCs” value ([8]; 100 μg/mL) was “Toxicity was detected”. For the same compound, the “TOXICITY VALUES (XTT) % CC” value ([8]; 100 μg/ml) was 51.2%.
In the case of CO[C@H]1/C=C/O[C@@]2(C)Oc3c(C)c(O)c4c(O)c(c(/C=N/N5CCN(C)CC5)c(O)c4c3C2=O)NC(=O)/C(C)=C\C=C\[C@H](C)[C@H](O)[C@@H](C)[C@@H](O)[C@@H](C)[C@H](OC(C)=O)[C@@H]1C [Rifampin, rifampin, reference compound], the LORA [1] is reported as 1.56 µg/mL, the “Microphage log reduction (high conc.)” value [2] is reported as 2.00 and the “Microphage log reduction (low conc.)” value [2] is reported as 0.76. For the same compound, the “Microphage log reduction (mid conc.)” value [2] was 1.11, the “Colony Count” value (Mtb H37Rv (SRI 1345) [3]) was 23 CFU and the MBC (Mtb H37Rv (SRI 1345) [3]; Mycobacterium tuberculosis, H37RV) was 3.12 µg/mL (≈ 3.8 µM). For the same compound, the MIC (H37Rv Colorado strain [9]) was 0.0031 µg/mL (≈ 0.00377 µM), the MBC (H37Rv Colorado strain [10]) was 0.0063 µg/mL (≈ 0.00766 µM) and the “% inhibition at the MIC concentration” value (Mtb H37Rv (SRI 1345) [6]) was 81%. For the same compound, the MIC (Mtb H37Rv (SRI 1345) [6]) was 0.049 µg/mL (≈ 0.0595 µM), the MIC (TB) was 0.006 µg/mL (≈ 0.00729 µM) and the “MTT % viability (high conc.)” value [7] was 86%. The “MTT % viability (low conc.)” value [7] was 97% and the “MTT % viability (mid conc.)” value [7] was 96%.
Work on C[C@H]1COc2c(N3CCN(C)CC3)c(F)cc3c(=O)c(C(=O)O)cn1c23 [Levofloxacin, reference compound] yielded a survival (Y. pestis C092) of 88.9% and a survival (F. tularensis SCHU S4) of 100%.
